This is an account of results in ChEMBL document CHEMBL1201862, “PubChem BioAssay data set” (2004).

Molecules are shown by their SMILES.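 Interpolation was linear, between the two tested concentrations surrounding the appropriate level; five concentrations were tested over 48 hours in 96-well plates. Here, GI50 denotes the concentration required for 50% inhibition of growth.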 The source made the active and inactive calls. Cut-off read from the data, not from the text of the source: active = GI50 up to about 1.1 µM and inactive = higher.

Holding throughout (experiment): inhibition of tumour cell growth, NCI panel, 48 h
Assay [1] has as its system HCC 2998.
Assay [2] has as its system K562.
For assay [3], the system named is KM12.
In assay [4] the test system is HL-60.
The test system of assay [5] is SN12C.
Assay [6] concerns SK-OV-3.
Assay [7] concerns NCI/ADR-RES.
Assay [8] relates to OVCAR-5.
For assay [9], the system named is SW-620.
Assay [10] concerns LOX IMVI.
For assay [11], the system named is HOP-62.
Assay [12] has as its system MDA-MB-231.
Assay [13] has as its system CCRF-CEM.
For assay [14], the system named is TK-10.
Assay [15] relates to COLO 205.
In assay [16] the test system is UO-31.
For assay [17], the system named is MOLT-4.
For assay [18], the system named is SF-268.
Assay [19] concerns SR.
Assay [20] has as its system RXF 393.

Turning to `COc1cc2c(c(OC)c1OC)-c1ccc(SC)c(=O)cc1[C@@H](O)CC2`, the GI50 in assay [1] is 0.00122 µM (active); in assay [2] it was 0.00948 µM (active); in assay [3] it was 0.000234 µM (active); in assay [4] it was 0.000269 µM (active); in [5] it was 0.00265 µM (active); in assay [6] it was 0.000392 µM (active). The GI50 in assay [7] is 0.00253 µM (active); in assay [8] it was 0.0069 µM (active); in assay [9], 0.000333 µM (active); in assay [10] it was 0.00078 µM (active); in [11] it was 0.000834 µM (active); in [12] it was 0.00115 µM (active). The GI50 in assay [13] is 0.00031 µM (active); in assay [14], > 1 µM (active); in [15], 0.000408 µM (active); in [16], 0.0208 µM (active); in assay [17], 0.00108 µM (active); in assay [18], 0.00128 µM (active). The results for the GI50 in [19] and in assay [20] were 0.00258 µM (active) and 0.000317 µM (active), respectively.

For the compound `CCOC(=O)c1csc(NC(=O)CCN2CCOCC2)n1`, the GI50 was > 100 µM (inactive) in [1]; 74.8 µM (inactive) in assay [2]; 27.7 µM (inactive) in assay [4]; > 100 µM (inactive) in assay [6]; 48.5 µM (inactive) in [7]; > 100 µM (inactive) in assay [8]. For the same compound, the GI50 was 49.1 µM (inactive) in [9]; 93.8 µM (inactive) in assay [10]; > 100 µM (inactive) in assay [11]; > 100 µM (inactive) in assay [12]; 29.6 µM (inactive) in assay [13]; 39.9 µM (inactive) in assay [14]. For the same compound, the GI50 in assay [15] is 52.7 µM (inactive); in assay [16], 78.5 µM (inactive); in [17], 25.9 µM (inactive); in assay [19] it was 66.2 µM (inactive); in [20], 75.5 µM (inactive).

As for `COc1ccc(P2(=S)SP(=S)(c3ccc(Cl)cc3)S2)cc1` (stereo not drawn), the GI50 in [1], in [3], in assay [4], in assay [5], in assay [6] and in [7] was > 100 µM (inactive) each time. Further, the GI50 in assay [8], in [9], in assay [10], in assay [11], in assay [12] and in [13] was > 100 µM (inactive) each time. Also, the GI50 in assay [14], in assay [15], in [16], in assay [17], in assay [18] and in assay [19] was > 100 µM (inactive) each time. Moreover, in assay [20], the GI50 was > 100 µM (inactive).

Regarding `CCOC(=O)CC/C(C)=N\n1c(Cc2ccc(Cl)cc2)n[nH]c1=O`, the GI50 in [1], in assay [2], in assay [3], in assay [4], in assay [5] and in assay [7] was > 100 µM (inactive) throughout. In addition, the GI50 in [8] was 14.3 µM (inactive); in assay [9] it was > 100 µM (inactive); in [10], > 100 µM (inactive); in [11], > 100 µM (inactive); in assay [12], > 100 µM (inactive); in [14] it was > 100 µM (inactive). In addition, the GI50 in assay [16], in assay [17], in assay [18], in assay [19] and in assay [20] was > 100 µM (inactive) each time.

As to `CSc1c(C#N)c(O)n(-c2ccc(Cl)cc2)c(=O)c1C(C)=O`, the GI50 in assay [1] was > 100 µM (inactive); in assay [2] it was 25.5 µM (inactive); in assay [3] it was > 100 µM (inactive); in assay [4], 18.4 µM (inactive); in assay [5], > 100 µM (inactive); in assay [6], > 100 µM (inactive). The GI50 in assay [7] is 38.4 µM (inactive); in assay [8], 45.7 µM (inactive); in [9], 44.7 µM (inactive); in assay [10] it was 34.4 µM (inactive); in [12], 88.3 µM (inactive); in assay [13], 17 µM (inactive). Besides, the GI50 was 42.6 µM (inactive) in [14]; 24.2 µM (inactive) in assay [15]; 24.9 µM (inactive) in [16]; 23 µM (inactive) in assay [17]; 61.7 µM (inactive) in assay [18]; 30.5 µM (inactive) in assay [19]. Moreover, the GI50 in [20] is 33.6 µM (inactive).

As to `CC1=C(C(=O)Nc2ccccc2)C(c2ccc(C)o2)C(C#N)=C(SCc2ccccc2)N1` (stereo not drawn), the GI50 is > 100 µM (inactive) in [1]; 14.4 µM (inactive) in assay [2]; 10.9 µM (inactive) in assay [3]; 17.7 µM (inactive) in assay [4]; > 100 µM (inactive) in assay [5]; > 100 µM (inactive) in assay [6]. The GI50 in [7] was 18.7 µM (inactive); in assay [8], > 100 µM (inactive); in [9] it was > 58.6 µM (inactive); in assay [10], > 100 µM (inactive); in [11], > 100 µM (inactive); in assay [12], > 100 µM (inactive). Also, the GI50 in [13] was 13.2 µM (inactive); in [14] it was > 65.3 µM (inactive); in assay [15], 31.3 µM (inactive); in assay [16] it was 99.3 µM (inactive); in assay [17], 7.55 µM (inactive); in [18] it was > 100 µM (inactive). Further, the GI50 was 4.75 µM (inactive) in assay [19] and > 37.6 µM (inactive) in assay [20].

As to `N#Cc1cc2cc3c4c(c2oc1=O)CCCN4CCC3`, the GI50 in assay [1], in assay [2], in assay [3], in [4], in [5] and in [6] was > 100 µM (inactive) in each case. In addition, the GI50 in assay [7], in [8], in assay [9], in assay [10], in assay [11] and in [12] was > 100 µM (inactive) in each case. The GI50 in assay [13], in assay [14], in assay [15], in assay [16], in assay [17] and in assay [18] was > 100 µM (inactive) in each case. Further, the GI50 in [19] and in assay [20] was > 100 µM (inactive) each time.

In the case of `C/C(=N\NC(=S)NC(C)(C)C)c1ccccn1`, the GI50 was 0.235 µM (active) in [1]; < 0.01 µM (active) in assay [2]; 0.574 µM (active) in [3]; < 0.01 µM (active) in assay [4]; 0.295 µM (active) in assay [5]; 0.305 µM (active) in assay [6]. Moreover, the GI50 is < 0.01 µM (active) in [7]; < 0.01 µM (active) in [9]; < 0.01 µM (active) in assay [10]; < 0.0222 µM (active) in assay [11]; < 0.0378 µM (active) in assay [12]; < 0.01 µM (active) in [13]. For the same compound, the GI50 in [14] was 0.358 µM (active); in assay [15], < 0.01 µM (active); in [16], 0.189 µM (active); in assay [17] it was < 0.01 µM (active); in assay [18], 1.39 µM (inactive); in [19], < 0.01 µM (active). Besides, in assay [20], the GI50 is < 0.01 µM (active).

As to `COc1cccc(C2C3=C(COC3=O)Oc3cc4c(cc32)OCO4)c1` (stereo not drawn), the GI50 in [1] is 0.0723 µM (active); in assay [2], < 0.0135 µM (active); in assay [3] it was < 0.0142 µM (active); in assay [4], < 0.0146 µM (active); in assay [5], 0.078 µM (active); in [6] it was 0.0414 µM (active). Besides, the GI50 in assay [7] was 0.0168 µM (active); in [8] it was 0.52 µM (active); in [9], 0.0188 µM (active); in assay [10], < 0.0155 µM (active); in [11], 0.033 µM (active); in assay [12], 0.0718 µM (active). Moreover, the GI50 in assay [13] was 0.0192 µM (active); in assay [14], 0.0766 µM (active); in assay [15], 0.0233 µM (active); in assay [16] it was 0.0927 µM (active); in [17], 0.0256 µM (active); in assay [18] it was 0.0575 µM (active). The GI50 in [19] was < 0.0135 µM (active); in assay [20], 0.0251 µM (active).

On to `Fc1ccc2nc3n(c2c1)C(c1c(F)cccc1F)SC3` (stereo not drawn), for which the GI50 in [1] is > 100 µM (inactive); in [3] it was 39.4 µM (inactive); in assay [4], 17.7 µM (inactive); in assay [5], 77.4 µM (inactive); in assay [6] it was 54.8 µM (inactive); in [7], 31.6 µM (inactive). The GI50 in assay [8] is 8.69 µM (inactive); in assay [9] it was 49.5 µM (inactive); in [10], 50.7 µM (inactive); in assay [11], > 100 µM (inactive); in assay [12], 72.6 µM (inactive); in assay [14] it was 96.4 µM (inactive). Further, the GI50 in assay [15] is 45.2 µM (inactive); in assay [16], 30.9 µM (inactive); in [17], 21.3 µM (inactive); in assay [18], > 100 µM (inactive); in [19] it was 18.4 µM (inactive); in assay [20] it was 53.7 µM (inactive).

Regarding `Clc1cccc(Cl)c1C1ON=C(c2ccccc2)N1C12CC3CC(CC(C3)C1)C2` (stereo not drawn), the GI50 was 13.8 µM (inactive) in assay [1]; 6.7 µM (inactive) in [2]; 1.63 µM (inactive) in assay [3]; 3.3 µM (inactive) in assay [4]; 41.6 µM (inactive) in assay [5]; 98.2 µM (inactive) in [6]. Besides, the GI50 in [7] was 15.2 µM (inactive); in assay [8], > 100 µM (inactive); in [10], 7.26 µM (inactive); in assay [11], 31.6 µM (inactive); in assay [12], 10.1 µM (inactive); in assay [13], 10.4 µM (inactive). In addition, the GI50 is 63.7 µM (inactive) in assay [14]; 11.9 µM (inactive) in assay [15]; 58.5 µM (inactive) in [16]; 7.31 µM (inactive) in [17]; 82 µM (inactive) in assay [18]; 5.35 µM (inactive) in assay [19]. Besides, the GI50 in assay [20] was 39.1 µM (inactive).
